Assay results as given in the supplement of paper PMC10307832.

Tests used:
Test in all cases: relative viability (nuclei count vs DMSO), 5 days (fraction); higher = more cells survive
A-427 = tested on: A-427
Summary of the method: (§1)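 Lung cancer cell lines, seeded in 1536-well plates, were treated the following day by pin tool with a single drug or with five library-drug doses (not always all listed) in √10 steps on top of a fixed anchor-drug dose. Cells were fixed and nuclei stained in one step after 5 days, and nuclei were counted. Relative viability is the nuclei count for treated wells divided by that for vehicle wells, reported as medians of duplicate plates.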

COR-L 105 = tested on: COR-L 105
Summary of the method: as §1

ChaGo-K-1 = tested on: ChaGo-K-1
Summary of the method: as §1

EKVX = tested on: EKVX
Summary of the method: as §1

EMC-BAC-2 = tested on: EMC-BAC-2
Summary of the method: as §1

H3255 = tested on: H3255
Summary of the method: as §1

HCC-366 = tested on: HCC-366
Summary of the method: as §1

LK-2 = tested on: LK-2
Summary of the method: as §1

LOU-NH91 = tested on: LOU-NH91
Summary of the method: as §1

NCI-H1666 = tested on: NCI-H1666
Summary of the method: as §1

NCI-H1734 = tested on: NCI-H1734
Summary of the method: as §1

NCI-H1755 = tested on: NCI-H1755
Summary of the method: as §1

NCI-H1792 = tested on: NCI-H1792
Summary of the method: as §1

NCI-H1975 = tested on: NCI-H1975
Summary of the method: as §1

NCI-H2170 = tested on: NCI-H2170
Summary of the method: as §1

NCI-H23 = tested on: NCI-H23
Summary of the method: as §1

NCI-H441 = tested on: NCI-H441
Summary of the method: as §1

NCI-H520 = tested on: NCI-H520
Summary of the method: as §1

NCI-H596 = tested on: NCI-H596
Summary of the method: as §1

PC-3 [JPC-3] = tested on: PC-3 [JPC-3]
Summary of the method: as §1

SK-MES-1 = tested on: SK-MES-1
Summary of the method: as §1

SW 900 = tested on: SW 900
Summary of the method: as §1

CC1(C)CCC(c2ccc(Cl)cc2)=C(CN2CCN(c3ccc(C(=O)NS(=O)(=O)c4ccc(N[C@H](CCN5CCOCC5)CSc5ccccc5)c(S(=O)(=O)C(F)(F)F)c4)cc3)CC2)C1 [Navitoclax] + CC(=O)Nc1cccc(-n2c(=O)n(C3CC3)c(=O)c3c(Nc4ccc(I)cc4F)n(C)c(=O)c(C)c32)c1 [Trametinib] (partner 0.02 µM)
relative viability (A-427; first compound 0.005 µM): 0.724 | relative viability (A-427; first compound 0.01581 µM): 0.714 | relative viability (A-427; first compound 0.05 µM): 0.624 | relative viability (A-427; first compound 0.1581 µM): 0.599 | relative viability (A-427; first compound 0.5 µM): 0.652 | relative viability (COR-L 105; first compound 0.005 µM): 0.441 | relative viability (COR-L 105; first compound 0.01581 µM): 0.476 | relative viability (COR-L 105; first compound 0.05 µM): 0.428 | relative viability (COR-L 105; first compound 0.1581 µM): 0.447 | relative viability (COR-L 105; first compound 0.5 µM): 0.379 | relative viability (ChaGo-K-1; first compound 0.005 µM): 0.812 | relative viability (ChaGo-K-1; first compound 0.01581 µM): 0.859 | relative viability (ChaGo-K-1; first compound 0.05 µM): 0.451 | relative viability (ChaGo-K-1; first compound 0.1581 µM): 0.904 | relative viability (ChaGo-K-1; first compound 0.5 µM): 0.837 | relative viability (EKVX; first compound 0.005 µM): 0.292 | relative viability (EKVX; first compound 0.01581 µM): 0.457 | relative viability (EKVX; first compound 0.05 µM): 0.334 | relative viability (EKVX; first compound 0.1581 µM): 0.376 | relative viability (EKVX; first compound 0.5 µM): 0.333 | relative viability (EMC-BAC-2; first compound 0.005 µM): 0.728 | relative viability (EMC-BAC-2; first compound 0.01581 µM): 0.87 | relative viability (EMC-BAC-2; first compound 0.05 µM): 0.866 | relative viability (EMC-BAC-2; first compound 0.1581 µM): 0.848 | relative viability (EMC-BAC-2; first compound 0.5 µM): 0.806 | relative viability (H3255; first compound 0.005 µM): 0.529 | relative viability (H3255; first compound 0.01581 µM): 0.7 | relative viability (H3255; first compound 0.05 µM): 0.612 | relative viability (H3255; first compound 0.1581 µM): 0.59 | relative viability (H3255; first compound 0.5 µM): 0.582 | relative viability (HCC-366; first compound 0.005 µM): 0.319 | relative viability (HCC-366; first compound 0.01581 µM): 0.419 | relative viability (HCC-366; first compound 0.1581 µM): 0.351 | relative viability (HCC-366; first compound 0.5 µM): 0.288 | relative viability (LK-2; first compound 0.005 µM): 0.76 | relative viability (LK-2; first compound 0.01581 µM): 0.868 | relative viability (LK-2; first compound 0.05 µM): 0.922 | relative viability (LK-2; first compound 0.1581 µM): 0.807 | relative viability (LK-2; first compound 0.5 µM): 0.695 | relative viability (LOU-NH91; first compound 0.005 µM): 0.776 | relative viability (LOU-NH91; first compound 0.01581 µM): 0.829 | relative viability (LOU-NH91; first compound 0.05 µM): 0.607 | relative viability (LOU-NH91; first compound 0.1581 µM): 0.685 | relative viability (LOU-NH91; first compound 0.5 µM): 0.33 | relative viability (NCI-H1666; first compound 0.005 µM): 0.933 | relative viability (NCI-H1666; first compound 0.01581 µM): 0.937 | relative viability (NCI-H1666; first compound 0.05 µM): 0.928 | relative viability (NCI-H1666; first compound 0.1581 µM): 0.903 | relative viability (NCI-H1666; first compound 0.5 µM): 0.931 | relative viability (NCI-H1734; first compound 0.005 µM): 0.644 | relative viability (NCI-H1734; first compound 0.01581 µM): 0.776 | relative viability (NCI-H1734; first compound 0.1581 µM): 0.625 | relative viability (NCI-H1734; first compound 0.5 µM): 0.646 | relative viability (NCI-H1755; first compound 0.005 µM): 0.743 | relative viability (NCI-H1755; first compound 0.01581 µM): 0.774 | relative viability (NCI-H1755; first compound 0.05 µM): 0.662 | relative viability (NCI-H1755; first compound 0.1581 µM): 0.764 | relative viability (NCI-H1755; first compound 0.5 µM): 0.802 | relative viability (NCI-H1792; first compound 0.005 µM): 0.458 | relative viability (NCI-H1792; first compound 0.01581 µM): 0.631 | relative viability (NCI-H1792; first compound 0.1581 µM): 0.376 | relative viability (NCI-H1792; first compound 0.5 µM): 0.388 | relative viability (NCI-H1975; first compound 0.005 µM): 0.427 | relative viability (NCI-H1975; first compound 0.01581 µM): 0.409 | relative viability (NCI-H1975; first compound 0.05 µM): 0.236 | relative viability (NCI-H1975; first compound 0.1581 µM): 0.399 | relative viability (NCI-H1975; first compound 0.5 µM): 0.316 | relative viability (NCI-H2170; first compound 0.005 µM): 0.926 | relative viability (NCI-H2170; first compound 0.01581 µM): 0.984 | relative viability (NCI-H2170; first compound 0.05 µM): 0.892 | relative viability (NCI-H2170; first compound 0.1581 µM): 0.887 | relative viability (NCI-H2170; first compound 0.5 µM): 0.874 | relative viability (NCI-H23; first compound 0.005 µM): 0.338 | relative viability (NCI-H23; first compound 0.01581 µM): 0.436 | relative viability (NCI-H23; first compound 0.05 µM): 0.443 | relative viability (NCI-H23; first compound 0.1581 µM): 0.357 | relative viability (NCI-H23; first compound 0.5 µM): 0.412 | relative viability (NCI-H441; first compound 0.005 µM): 0.534 | relative viability (NCI-H441; first compound 0.01581 µM): 0.616 | relative viability (NCI-H441; first compound 0.05 µM): 0.349 | relative viability (NCI-H441; first compound 0.1581 µM): 0.448 | relative viability (NCI-H441; first compound 0.5 µM): 0.553 | relative viability (NCI-H520; first compound 0.005 µM): 0.673 | relative viability (NCI-H520; first compound 0.01581 µM): 0.653 | relative viability (NCI-H520; first compound 0.05 µM): 0.631 | relative viability (NCI-H520; first compound 0.1581 µM): 0.603 | relative viability (NCI-H520; first compound 0.5 µM): 0.693 | relative viability (NCI-H596; first compound 0.005 µM): 0.796 | relative viability (NCI-H596; first compound 0.01581 µM): 1.22 | relative viability (NCI-H596; first compound 0.05 µM): 0.693 | relative viability (NCI-H596; first compound 0.1581 µM): 0.79 | relative viability (NCI-H596; first compound 0.5 µM): 0.776 | relative viability (PC-3 [JPC-3]; first compound 0.005 µM): 0.674 | relative viability (PC-3 [JPC-3]; first compound 0.01581 µM): 0.714 | relative viability (PC-3 [JPC-3]; first compound 0.05 µM): 0.734 | relative viability (PC-3 [JPC-3]; first compound 0.1581 µM): 0.668 | relative viability (PC-3 [JPC-3]; first compound 0.5 µM): 0.603 | relative viability (SK-MES-1; first compound 0.005 µM): 0.516 | relative viability (SK-MES-1; first compound 0.01581 µM): 0.681 | relative viability (SK-MES-1; first compound 0.05 µM): 0.547 | relative viability (SK-MES-1; first compound 0.1581 µM): 0.591 | relative viability (SK-MES-1; first compound 0.5 µM): 0.654 | relative viability (SW 900; first compound 0.005 µM): 0.706 | relative viability (SW 900; first compound 0.01581 µM): 0.981 | relative viability (SW 900; first compound 0.1581 µM): 0.828 | relative viability (SW 900; first compound 0.5 µM): 0.81
